Our source for the IC50 values is patent US9181264B2, “Fused heteroaryls and their uses” (Hutchison MediPharma Limited, priority 2011, dated 2015).

Experiment [1] addresses T1, mTOR kinase (Homo sapiens, UniProt P42345).
T1 construct: purchased Invitrogen PV4753
Put plainly: mTOR LanthaScreen TR-FRET assay. The format is biochemical. The following applies: 10 μmol/L ATP, GFP-4EBP1 substrate; read-out: IC50, inhibition of mTOR. As for the experimental part:
Compounds are tested using LanthaScreen TR-FRET Assay. The kinase reaction is completed in 384-well black plate (Corning, Cat. 3676). The final conditions for kinase assay are: 10 μmol/L of ATP, 0.2 ng/μL of mTOR kinase, 0.4 μmol/L of GFP-4EBP1 substrate and assay buffer (50 mmol/L of HEPES, pH 7.5, 0.01% of Tween 20, 1 mmol/L of EGTA, 10 mmol/L of MnCl2, 2 mmol/L of DTT and 1% DMSO).
To each well, 2.5 μL of test compounds in 4% DMSO and 2.5 μL of 0.8 ng/μL mTOR kinase (Invitrogen, PV4753) diluted in assay buffer are added. The reaction is initiated by the addition of 5 μL mixture of 0.8 μmol/L GFP-4EBP1 Substrate (Invitorgen, PV4759) and 20 μmol/L ATP mixtures. The mixture is incubated at room temperature for 60 minutes. 10 μL of 20 mmol/L EDTA and 4 nmol/L Tb-anti-p4EBP1 [pThr46] antibody (Invitrogen, PV4755) diluted in TR-FRET dilution buffer are added and incubated for an additional 1 hour. The plate is then read in a BioTek Synergy2 Reader at excitation of 340 nm and emission of 490 nm and 528 nm.
The inhibition of test compound is calculated based on the ratio of 528 nm/490 nm. IC50 of test compound is obtained using XLfit 2.0 software.

The target of experiment [2] is T2, PI3Kα kinase (Homo sapiens, UniProt P42336).
T2 construct: purchased Invitrogen PV4788
T2 sequence (P42336 whole entry): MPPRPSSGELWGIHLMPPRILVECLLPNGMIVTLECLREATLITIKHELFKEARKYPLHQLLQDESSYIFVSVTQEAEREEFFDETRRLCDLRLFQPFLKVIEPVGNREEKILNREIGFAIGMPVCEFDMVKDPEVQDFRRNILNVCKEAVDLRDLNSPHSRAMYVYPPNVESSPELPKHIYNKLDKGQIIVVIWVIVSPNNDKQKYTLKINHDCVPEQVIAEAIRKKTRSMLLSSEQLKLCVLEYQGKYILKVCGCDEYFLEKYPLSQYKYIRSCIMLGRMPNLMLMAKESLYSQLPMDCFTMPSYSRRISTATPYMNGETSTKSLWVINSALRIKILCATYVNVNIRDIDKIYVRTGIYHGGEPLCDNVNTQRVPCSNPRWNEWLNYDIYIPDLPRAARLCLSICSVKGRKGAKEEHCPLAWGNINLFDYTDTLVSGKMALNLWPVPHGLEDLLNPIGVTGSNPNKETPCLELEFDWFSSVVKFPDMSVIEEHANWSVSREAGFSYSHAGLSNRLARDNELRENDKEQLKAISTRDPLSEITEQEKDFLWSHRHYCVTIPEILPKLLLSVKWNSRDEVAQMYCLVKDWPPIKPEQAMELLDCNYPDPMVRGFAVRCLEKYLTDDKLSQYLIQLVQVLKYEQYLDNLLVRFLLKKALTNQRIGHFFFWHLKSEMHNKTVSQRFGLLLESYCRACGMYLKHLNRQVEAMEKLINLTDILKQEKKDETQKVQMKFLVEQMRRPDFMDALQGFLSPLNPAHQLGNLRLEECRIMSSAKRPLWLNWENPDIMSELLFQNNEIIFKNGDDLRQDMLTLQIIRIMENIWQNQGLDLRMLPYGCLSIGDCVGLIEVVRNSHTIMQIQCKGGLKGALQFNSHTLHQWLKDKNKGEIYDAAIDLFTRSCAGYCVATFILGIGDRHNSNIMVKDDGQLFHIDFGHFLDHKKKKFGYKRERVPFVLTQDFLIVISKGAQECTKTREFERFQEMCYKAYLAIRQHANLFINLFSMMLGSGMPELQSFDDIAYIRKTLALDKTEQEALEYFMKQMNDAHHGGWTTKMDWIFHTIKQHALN
T2 sequence (P27986 whole entry partner): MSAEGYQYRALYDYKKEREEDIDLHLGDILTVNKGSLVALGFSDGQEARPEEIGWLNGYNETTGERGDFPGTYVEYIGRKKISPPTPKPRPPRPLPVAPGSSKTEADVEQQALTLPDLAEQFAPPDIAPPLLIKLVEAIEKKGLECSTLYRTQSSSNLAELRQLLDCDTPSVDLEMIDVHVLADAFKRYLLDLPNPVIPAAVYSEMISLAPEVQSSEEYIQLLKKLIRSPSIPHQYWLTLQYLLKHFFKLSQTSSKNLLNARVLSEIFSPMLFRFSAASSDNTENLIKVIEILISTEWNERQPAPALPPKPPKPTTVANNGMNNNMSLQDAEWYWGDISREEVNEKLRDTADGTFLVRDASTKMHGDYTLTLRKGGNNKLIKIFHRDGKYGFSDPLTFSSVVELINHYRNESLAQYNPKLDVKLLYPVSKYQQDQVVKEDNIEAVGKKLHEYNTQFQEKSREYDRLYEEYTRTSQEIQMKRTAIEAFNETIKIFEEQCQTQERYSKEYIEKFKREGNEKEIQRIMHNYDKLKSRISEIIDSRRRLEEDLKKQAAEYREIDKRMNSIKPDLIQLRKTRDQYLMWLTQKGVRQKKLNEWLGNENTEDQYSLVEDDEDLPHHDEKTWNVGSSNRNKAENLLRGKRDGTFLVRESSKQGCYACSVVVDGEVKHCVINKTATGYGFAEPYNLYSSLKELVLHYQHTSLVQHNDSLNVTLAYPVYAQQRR
The experiment in a line: PI3Ka Transcreener ADP assay (fluorescence polarization). The format is biochemical. The conditions noted are these: 10 μM ATP, 30 μmol/L lipid substrate; read-out: IC50, inhibition of PI3Kα kinase. As to the method: Fluorescence polarization was used in this assay. The final conditions for kinase assay are 10 μM of ATP, 0.2 ng/μL of PI3Kα kinase, 30 μmol/L of lipid substrate and assay buffer (50 mmol/L of HEPES (pH 7.5), 100 mmol/L of NaCl, 1 mmol/L of EGTA, 3 mmol/L of MgCl2, 1 mmol/L of DTT and 0.03% CHAPS and 2% DMSO).
5 μL of test compounds in 10% DMSO and 10 μL of 0.5 ng/μL PI3K kinase (Invitrogen, PV4788) in assay buffer are put into a 96-well plate (Greiner, Cat. 675076), and then the reaction is started by the addition of 10 μL of 75 μmol/L PIP2, (PS Lipid Substrate Invitrogen, PV5100), and 25 μmol/L ATP mixture. After the mixture is incubated for 60 minutes at room temperature, 25 μL of transcreener Kinase Kit reagent—ADP Detection Mix—(Bellbrook Labs) is added, and the reaction is continued for an additional 1.5 hours. At the end, the plate is read in a Tecan Infinite F500 at excitation of 610 nm and emission of 670 nm.
A standard curve for ADP is obtained in a parallel way by replacing compound and PI3Kα kinase with DMSO and assay buffer, respectively. Different concentration of ADP, 0-10 μM, and ATP, 10-0 μM (ATP+ADP equal to 10 μM) are applied instead of a fixed concentration of ATP in this standard curve assay. Other conditions are the same as described above. The standard curve is plotted using Origin 8.0 software. The inhibition of test compound on ADP production is calculated based on ADP concentration from standard curve. IC50 is obtained using XLfit 2.0 software.
In general terms: In fluorescence polarisation assays a small probe gives low polarisation when free and higher when bound to something large.

Molecules are shown by their SMILES.

T1 sequence (P42345 1360-2549 limits assumed): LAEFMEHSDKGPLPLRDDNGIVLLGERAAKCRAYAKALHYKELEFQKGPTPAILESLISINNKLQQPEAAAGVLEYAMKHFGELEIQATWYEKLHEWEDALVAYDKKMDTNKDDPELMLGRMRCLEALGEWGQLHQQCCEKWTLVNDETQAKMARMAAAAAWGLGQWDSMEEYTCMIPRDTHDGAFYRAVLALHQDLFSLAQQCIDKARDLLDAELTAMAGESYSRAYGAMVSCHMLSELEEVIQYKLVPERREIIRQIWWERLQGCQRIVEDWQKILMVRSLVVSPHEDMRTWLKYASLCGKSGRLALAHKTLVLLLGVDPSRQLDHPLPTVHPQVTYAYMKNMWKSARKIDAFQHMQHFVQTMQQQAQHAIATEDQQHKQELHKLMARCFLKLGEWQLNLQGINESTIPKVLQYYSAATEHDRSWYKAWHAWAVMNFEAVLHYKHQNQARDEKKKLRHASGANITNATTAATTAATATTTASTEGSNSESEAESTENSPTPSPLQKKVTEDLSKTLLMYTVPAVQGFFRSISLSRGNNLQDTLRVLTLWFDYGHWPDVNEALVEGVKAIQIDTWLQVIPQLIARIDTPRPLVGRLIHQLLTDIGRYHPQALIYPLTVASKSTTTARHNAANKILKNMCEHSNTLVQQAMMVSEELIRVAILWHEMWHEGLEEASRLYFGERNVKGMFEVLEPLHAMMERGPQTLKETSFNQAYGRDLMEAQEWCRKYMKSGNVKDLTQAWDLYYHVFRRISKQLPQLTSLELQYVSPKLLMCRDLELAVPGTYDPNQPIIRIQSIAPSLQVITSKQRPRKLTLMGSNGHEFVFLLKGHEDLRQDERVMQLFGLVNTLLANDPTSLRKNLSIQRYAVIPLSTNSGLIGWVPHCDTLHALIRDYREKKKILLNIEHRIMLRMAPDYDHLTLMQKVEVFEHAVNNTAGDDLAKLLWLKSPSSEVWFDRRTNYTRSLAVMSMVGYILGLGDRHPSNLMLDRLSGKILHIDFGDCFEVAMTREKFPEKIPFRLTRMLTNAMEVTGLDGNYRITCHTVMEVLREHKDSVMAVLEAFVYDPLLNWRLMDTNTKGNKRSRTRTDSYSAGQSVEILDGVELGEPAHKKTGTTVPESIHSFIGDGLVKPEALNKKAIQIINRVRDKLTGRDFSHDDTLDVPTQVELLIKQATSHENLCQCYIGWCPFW

For `CCc1nc2cnc3ccc(-c4cnc(N)c(C(F)(F)F)c4)nc3c2n1C1CCOCC1` [Compound 131], the IC50 in experiment [1] and in experiment [2] was less than 0.1 µM each time.

`COc1ncc(-c2ccc3ncc4nnc(C)n4c3c2)cc1NS(=O)(=O)C(F)(F)F` [Compound 155]: the IC50 in experiment [1] and in experiment [2] was less than 0.1 µM throughout.

Take `Cc1nc2cnc3ccc(-c4cnc(N)c(C(F)(F)F)c4)nc3c2n1C1CCN(CC2(C)COC2)CC1` [Compound 121]: the IC50 in experiment [1] and in experiment [2] was less than 0.1 µM throughout.

`C[C@H](O)C(=O)N1CCC(n2cnc3cnc4ccc(-c5cnc(N)c(C(F)(F)F)c5)nc4c32)CC1` [Compound 107]: the IC50 in experiment [1] and in experiment [2] was less than 0.1 µM each time.

For the molecule `N#Cc1cccc(-c2nnc3cnc4ccc(-c5ccc6nc(N)sc6c5)cc4n23)c1` [Compound 63], the IC50 in experiment [1] and in experiment [2] was less than 0.1 µM throughout.

On to `CCC(=O)N1CCC(n2cnc3cnc4ccc(-c5cnc(N)c(C(F)(F)F)c5)nc4c32)CC1` [Compound 96], for which the IC50 in experiment [1] and in experiment [2] was less than 0.1 µM each time.

Regarding `CC1(CN2CCC(n3nnc4cnc5ccc(-c6cnc(N)c(C(F)(F)F)c6)nc5c43)CC2)COC1` [Compound 44], the IC50 in experiment [1] and in experiment [2] was less than 0.1 µM each time.

For `Nc1ncc(-c2ccc3ncc4nnn(C5CCN(CCO)CC5)c4c3n2)cc1C(F)(F)F` [Compound 46], the IC50 in experiment [1] and in experiment [2] was less than 0.1 µM in each case.

For the molecule `Cc1nc2cnc3ccc(-c4cnc(N)c(C(F)(F)F)c4)nc3c2n1C1CCN(CCO)CC1` [Compound 129], the IC50 in experiment [1] and in experiment [2] was less than 0.1 µM throughout.

As for `Nc1ncc(-c2ccc3ncc4nnn(C5CCOCC5)c4c3n2)cc1C(F)(F)F` [Compound 10], the IC50 in experiment [1] and in experiment [2] was less than 0.1 µM throughout.

For `COc1ncc(-c2ccc3ncc4ncn(C)c4c3n2)cc1NS(=O)(=O)C(F)(F)F` [Compound 159], the 50% inhibitory concentration (IC50) in experiment [1] and in experiment [2] was less than 0.1 µM throughout.

As to `CC(C)(C#N)c1ccc(-c2nnc3cnc4ccc(-c5ccc6nc(N)oc6c5)cc4n23)cc1` [Compound 55], the half-maximal inhibitory concentration (IC50) in experiment [1] and in experiment [2] was less than 0.1 µM each time.

As to `CN(C)C(=O)CN1CCC(n2nnc3cnc4ccc(-c5cnc(N)c(C(F)(F)F)c5)nc4c32)CC1` [Compound 43, 2-(4-(8-(6-amino-5-(trifluoromethyl)pyridin-3-yl)-1H-[1,2,3]triazolo[4,5-c][1,5]naphthyridin-1-yl)piperidin-1-yl)-N,N-dimethylacetamide], the IC50 in experiment [1] and in experiment [2] was less than 0.1 µM throughout.

On to `Cc1nc2cnc3ccc(-c4cnc(N)c(C(F)(F)F)c4)nc3c2n1C1CCN(C(=O)[C@H](C)O)CC1` [Compound 122], for which the IC50 in experiment [1] and in experiment [2] was less than 0.1 µM in each case.

On to `COc1ncc(-c2ccc3ncc4ncn(C)c4c3n2)cc1NS(=O)(=O)c1ccc(F)cc1F` [Compound 153], for which the IC50 in experiment [1] and in experiment [2] was less than 0.1 µM each time.

Consider `COc1ncc(-c2ccc3ncc4c(c3c2)n(C)c(=O)n4C)cc1NS(=O)(=O)c1ccc(F)cc1F` [Compound 160], for which the IC50 in experiment [1] and in experiment [2] was less than 0.1 µM each time.

Turning to `C[C@@H](O)C(=O)N1CCC(n2nnc3cnc4ccc(-c5cnc(N)c(C(F)(F)F)c5)nc4c32)CC1` [Compound 21, (R)-1-(4-(8-(6-amino-5-(trifluoromethyl)pyridin-3-yl)-1H-[1,2,3]triazolo[4,5-c][1,5]naphthyridin-1-yl)piperidin-1-yl)-2-hydroxypropan-1-one], the IC50 in experiment [1] and in experiment [2] was less than 0.1 µM each time.

For `CC(C)(C#N)c1ccc(-n2nnc3cnc4ccc(-c5cnc(N)c(C(F)(F)F)c5)nc4c32)cc1` [Compound 17], the IC50 in experiment [1] and in experiment [2] was less than 0.1 µM in each case.

As to `CS(=O)(=O)N1CCC(n2cnc3cnc4ccc(-c5cnc(N)c(C(F)(F)F)c5)nc4c32)CC1` [Compound 103], the IC50 in experiment [1] and in experiment [2] was less than 0.1 µM each time.
